According to patent US6737383B1, “Herbicidal oxadiazolidines” (priority 1999, dated 2004):

What was measured:
[1] = test system: bedstraw; experiment: Test B pre/postemergence bedstraw; format: in vivo, Galium aparine
Procedure, shortened: (§1)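 Herbicidal effect was estimated by eye on a ten-point control scale after plants spent twelve to sixteen days in a greenhouse following soil or foliar treatment. Foliar sprays targeted plants at one to four leaves; all doses were formulated in a non-phytotoxic solvent with surfactant.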

[2] = test system: blackgrass; experiment: Test B pre/postemergence blackgrass; format: in vivo, Alopecurus myosuroides
Procedure, shortened: as §1

[3] = test system: surinam grass; experiment: Test B pre/postemergence surinam grass; format: in vivo, Brachiaria decumbens
Procedure, shortened: as §1

[4] = test system: cocklebur; experiment: Test B pre/postemergence cocklebur; format: in vivo, Xanthium strumarium
Procedure, shortened: as §1

[5] = test system: corn; experiment: Test B pre/postemergence corn; format: in vivo, Zea mays
Procedure, shortened: as §1

[6] = test system: crabgrass; experiment: Test B pre/postemergence crabgrass; format: in vivo, Digitaria sanguinalis
Procedure, shortened: as §1

[7] = test system: giant foxtail; experiment: Test B pre/postemergence giant foxtail; format: in vivo, Setaria faberii
Procedure, shortened: as §1

[8] = test system: morningglory; experiment: Test B pre/postemergence morningglory; format: in vivo, Ipomoea hederacea
Procedure, shortened: as §1

[9] = test system: pigweed; experiment: Test B pre/postemergence pigweed; format: in vivo, Amaranthus retroflexus
Procedure, shortened: as §1

[10] = test system: rape; experiment: Test B pre/postemergence rape; format: in vivo, Brassica napus
Procedure, shortened: as §1

[11] = test system: soybean; experiment: Test B pre/postemergence soybean; format: in vivo, Glycine max
Procedure, shortened: as §1

[12] = test system: sugar beet; experiment: Test B pre/postemergence sugar beet; format: in vivo, Beta vulgaris
Procedure, shortened: as §1

[13] = test system: velvetleaf; experiment: Test B pre/postemergence velvetleaf; format: in vivo, Abutilon theophrasti
Procedure, shortened: as §1

[14] = test system: wheat; experiment: Test B pre/postemergence wheat; format: in vivo, Triticum aestivum
Procedure, shortened: as §1

[15] = test system: wild oat; experiment: Test B pre/postemergence wild oat; format: in vivo, Avena fatua
Procedure, shortened: as §1

[16] = test system: purple nutsedge; experiment: Test B pre/postemergence purple nutsedge; format: in vivo, Cyperus rotundus
Procedure, shortened: as §1

[17] = Preemergence, Rate 125 g/ha, scale of 0 to 10 where 0 is no effect and 10 is complete control
[18] = Preemergence, Rate 250 g/ha, scale 0 (no effect) to 10 (complete control)
[19] = Rate 62 g/ha, Preemergence, scale 0 to 10
[20] = Rate 500 g/ha, Postemergence, scale 0 to 10, 0 is no effect, 10 is complete control
[21] = Rate 500 g/ha, Preemergence, scale 0 to 10 (0 no effect, 10 complete control)
[22] = Postemergence, Rate 62 g/ha, scale 0 to 10, 0 is no effect, 10 is complete control
[23] = Postemergence, Rate 125 g/ha, scale of 0 to 10 where 0 is no effect and 10 is complete control
[24] = Rate 250 g/ha, Postemergence, scale 0 to 10, 0 is no effect, 10 is complete control

C#CC(CC)n1c(=O)on(C(=O)N(c2ccc(F)cc2)C(C)C)c1=O (stereo not shown) [Compound 753]
6: Bedstraw plant response rating [1, 20] | Crabgrass plant response rating [6, 24] | Redroot pigweed plant response rating [9, 19] | Redroot pigweed plant response rating [9, 24]
10: Morningglory plant response rating [8, 20] | Redroot pigweed plant response rating [9, 21]
5: Blackgrass plant response rating [2, 19] | Redroot pigweed plant response rating [9, 23] | Plant response rating, Rape [10, 17] | Sugarbeets plant response rating [12, 24] | Sugarbeets plant response rating [12, 20] | Wheat plant response rating [14, 20]
3: Bedstraw plant response rating [1, 18] | Bedstraw plant response rating [1, 21] | Plant response rating, Giant foxtail [7, 22] | Wheat plant response rating [14, 18] | Wheat plant response rating [14, 21] | Nutsedge plant response rating [16, 20]
2: Blackgrass plant response rating [2, 23] | B. signalgrass plant response rating ([3]; Preemergence, Rate 62 g/ha, scale of 0 to 10 where 0 is no effect and 10 is complete control) | B. signalgrass plant response rating [3, 24] | Cocklebur plant response rating [4, 21] | Morningglory plant response rating [8, 23] | Rape plant response rating [10, 19] | Velvetleaf plant response rating [13, 24] | Velvetleaf plant response rating [13, 20] | Velvetleaf plant response rating [13, 21] | Wild oats plant response rating [15, 20] | Nutsedge plant response rating [16, 24]
7: Plant response rating, B. signalgrass [3, 17] | B. signalgrass plant response rating [3, 20] | Redroot pigweed plant response rating [9, 20] | Rape plant response rating [10, 18] | Rape plant response rating [10, 21]
9: Plant response rating, Blackgrass [2, 17] | Blackgrass plant response rating [2, 18] | Blackgrass plant response rating [2, 21] | B. signalgrass plant response rating [3, 18] | B. signalgrass plant response rating [3, 21] | Plant response rating, Crabgrass [6, 17] | Crabgrass plant response rating [6, 18] | Crabgrass plant response rating [6, 19] | Crabgrass plant response rating [6, 20] | Crabgrass plant response rating [6, 21] | Plant response rating, Giant foxtail [7, 17] | Giant foxtail plant response rating [7, 18] | Giant foxtail plant response rating [7, 19] | Giant foxtail plant response rating [7, 20] | Giant foxtail plant response rating [7, 21] | Morningglory plant response rating [8, 24] | Redroot pigweed plant response rating [9, 18] | Wild oats plant response rating [15, 21]
4: Blackgrass plant response rating [2, 24] | Blackgrass plant response rating [2, 20] | Cocklebur plant response rating [4, 20] | Crabgrass plant response rating [6, 23] | Plant response rating, Redroot pigweed [9, 22] | Soybean plant response rating [11, 24] | Soybean plant response rating [11, 20] | Plant response rating, Wild oats [15, 17]
1: Corn plant response rating [5, 20] | Plant response rating, Soybean [11, 22] | Sugarbeets plant response rating [12, 18]
0: Plant response rating, Bedstraw [1, 17] | Bedstraw plant response rating [1, 19] | Plant response rating, Blackgrass [2, 22] | Plant response rating, B. signalgrass [3, 22] | B. signalgrass plant response rating [3, 23] | Plant response rating, Cocklebur [4, 22] | Cocklebur plant response rating [4, 23] | Plant response rating, Cocklebur [4, 17] | Cocklebur plant response rating [4, 18] | Cocklebur plant response rating [4, 19] | Cocklebur plant response rating [4, 24] | Plant response rating, Corn [5, 22] | Corn plant response rating [5, 23] | Plant response rating, Corn [5, 17] | Corn plant response rating [5, 18] | Corn plant response rating [5, 19] | Corn plant response rating [5, 24] | Corn plant response rating [5, 21] | Plant response rating, Crabgrass [6, 22] | Plant response rating, Morningglory [8, 17] | Morningglory plant response rating [8, 18] | Morningglory plant response rating [8, 19] | Morningglory plant response rating [8, 21] | Plant response rating, Rape [10, 22] | Rape plant response rating [10, 23] | Rape plant response rating [10, 24] | Rape plant response rating [10, 20] | Plant response rating, Soybean [11, 17] | Soybean plant response rating [11, 18] | Soybean plant response rating [11, 19] | Soybean plant response rating [11, 21] | Plant response rating, Sugarbeets [12, 22] | Plant response rating, Sugarbeets [12, 17] | Sugarbeets plant response rating [12, 19] | Plant response rating, Velvetleaf [13, 22] | Plant response rating, Velvetleaf [13, 17] | Velvetleaf plant response rating [13, 19] | Plant response rating, Wheat [14, 22] | Plant response rating, Wheat [14, 17] | Wheat plant response rating [14, 19] | Wheat plant response rating [14, 24] | Plant response rating, Wild oats [15, 22] | Wild oats plant response rating [15, 19] | Wild oats plant response rating [15, 24] | Plant response rating, Nutsedge [16, 22] | Nutsedge plant response rating [16, 23] | Plant response rating, Nutsedge [16, 17] | Nutsedge plant response rating [16, 18] | Nutsedge plant response rating [16, 19] | Nutsedge plant response rating [16, 21]
8: Giant foxtail plant response rating [7, 23] | Giant foxtail plant response rating [7, 24] | Plant response rating, Redroot pigweed [9, 17] | Sugarbeets plant response rating [12, 21] | Wild oats plant response rating [15, 18]
